Series [1] deals with Escherichia coli. Put plainly: Antimicrobial activity against Escherichia coli BL21 assessed as growth inhibition at 200 uM in presence of minimum medium. The class given is functional.
The subject of series [2] is Escherichia coli. As to the kind of experiment: Antimicrobial activity against Escherichia coli BL21 assessed as growth inhibition at 200 uM after 24 hrs. The format is functional. As to conditions: for inhibition at 200 µM: BL21, BL21, 24 h.
In another series the test system is Escherichia coli BL21. Put plainly: Inhibition of Escherichia coli MurA. Set-up: concentration or dose not given beside the values.
The subject of series [3] is Escherichia coli BL21 [C115D]. As to the kind of experiment: Inhibition of Escherichia coli MurA C115D mutant at 25 uM.
A short description of series [4]: Inhibition of Escherichia coli MurA at 25 uM. Set-up: species or system Escherichia coli BL21.
A short description of series [5]: Electrophilicity, glutathione reactivity of the compound assessed as half life. The format is physicochemical. The conditions noted are these: glutathione (reaction with glutathione).
The subject of series [6] is Escherichia coli. As to the kind of experiment: Antimicrobial activity against Escherichia coli BL21 after 24 hrs. The class given is functional. As to conditions: BL21, 24 h.
The subject of series [7] is Escherichia coli. Put plainly: Antimicrobial activity against Escherichia coli BL21 expressing MurA C115D mutant assessed as growth inhibition at 200 uM in presence of kanamycin. The format is functional.
Series [8] concerns Escherichia coli. As to the kind of experiment: Antimicrobial activity against Escherichia coli BL21 expressing MurA C115D mutant assessed as growth inhibition at 200 uM after 20 hrs in presence of kanamycin and 0.5 mM IPTG. The class given is functional.
Series [9] deals with Escherichia coli. As to the kind of experiment: Antimicrobial activity against Escherichia coli BL21 expressing MurA C115D mutant assessed as growth inhibition at 200 uM after 20 hrs in presence of kanamycin and 1 mM IPTG. The format is functional.
In series [10] the test system is Escherichia coli. Put plainly: Antimicrobial activity against Escherichia coli BL21 assessed as growth inhibition at 200 uM in presence of IPTG. The format is functional.

Molecules are shown by their SMILES. pIC50: −log10 of the molar value. In brackets after ≈: the same amount, converted by molar mass. Activity calls are given as the source filed them.

One may read the inhibition as the drop in the measured response relative to a control, in per cent. What is called pIC50 is the IC50 on a negative log10 scale, so that one unit is a factor of ten. In general, half-life refers to the time needed for the level to fall by half in the phase considered. In general, MBC refers to the smallest concentration meeting the test's criterion for killing. A word on the MIC: it is the lowest concentration that inhibits growth of the organism.

For the molecule `C=C(CBr)C(=O)OC` [METHYL BROMOMETHYL ACRYLATE], the inhibition at 200 µM with Escherichia coli [1] worked out at 101%; in the series on Escherichia coli [2], 20%. Also, the inhibition with Escherichia coli BL21 (concentration not given here) is 55%. In addition, the inhibition result in series [3] is “inactive”.
`C=C1CC(CO)OC1=O` (centres undefined): in the series with Escherichia coli [1], the inhibition at 200 µM came out at 47%. Moreover, the inhibition entry (in the series on Escherichia coli [2]; in series [3]) was “inactive” in each case. Besides, the inhibition in the series with Escherichia coli BL21 (concentration not given here) turned out to be 17%.
As to `C=C(CO)C(=O)OC`, the inhibition result (in the series with Escherichia coli [1]; in the series on Escherichia coli [2]; in the series with Escherichia coli BL21; in series [3]) was “inactive” in each case.
Turning to `C=C(CP(=O)(O)O)C(=O)O`, the inhibition result (in the series with Escherichia coli [1]; in the series with Escherichia coli [2]; in [3]) was “inactive” in each case. Further, the inhibition with Escherichia coli BL21 (concentration not given here) worked out at 13%.
Regarding `C=C1C(=O)OC(CO)C1O` (centres undefined), the negative-log IC50 (pIC50) in [4] was 5.18. The inhibition at 200 µM stood at 102% with Escherichia coli [1] and 26% in the series with Escherichia coli [2]. In addition, in the series on Escherichia coli BL21 (concentration not given here), the inhibition was 74%. Further, in series [3], the inhibition entry was “inactive”.
Turning to `C=C(CO)C(=O)O`, in series [5], the half-life was above 60 h. Moreover, the inhibition entry (with Escherichia coli [1]; in the series on Escherichia coli [2]; in the series on Escherichia coli BL21; in series [3]) was “inactive” in each case.
Take `C=C(CP(=O)(OCC)OCC)C(=O)OC`: the inhibition entry (in the series on Escherichia coli [1]; with Escherichia coli [2]; in series [3]) was “inactive” in each case. Besides, the inhibition in the series with Escherichia coli BL21 (concentration not given here) is 20%.
Take `C=C(CCO)C(=O)O`: the inhibition result (in the series with Escherichia coli [1]; in the series with Escherichia coli BL21; in [3]) was “inactive” each time.
Molecule `C=C1C(=O)OC(CBr)C1O` (centres undefined) showed a pIC50 in [4] of 4.98. Also, the inhibition at 200 µM is 103% in the series with Escherichia coli [1] and 84% with Escherichia coli [2]. The figures for the inhibition (with Escherichia coli BL21 (concentration not given here); in series [3]) were 85% and 18%, respectively.
`C=C(C(=O)OC)C(O)C1COC(C)(C)O1` (centres undefined): the inhibition result (in the series with Escherichia coli [1]; in the series with Escherichia coli [2]; with Escherichia coli BL21; in series [3]) was “inactive” throughout.
For `C=C1CC(COC(C)=O)OC1=O` (centres undefined), the inhibition at 200 µM in the series with Escherichia coli [1] came to 74%. Further, the inhibition result (with Escherichia coli [2]; in the series with Escherichia coli BL21; in series [3]) was “inactive” throughout.
For the molecule `C=C(C(=O)O)C(O)C(O)CO` (centres undefined), the inhibition entry (with Escherichia coli [1]; in the series on Escherichia coli [2]; in the series with Escherichia coli BL21; in series [3]) was “inactive” in each case.
On to `C[C@@H]1O[C@@H]1P(=O)(O)O` [FOSFOMYCIN], for which, in the series with Escherichia coli [6], the minimal bactericidal concentration (MBC) came out at 200 µM (≈ 27.6 µg/mL). The minimum inhibitory concentration (MIC) with Escherichia coli [6] was determined as 50 µM (≈ 6.9 µg/mL). Also, the half-life in series [5] was above 60 h. This molecule showed a pIC50 in series [4] of 7.00. Besides, the result in the series with Escherichia coli [7] and in the series on Escherichia coli [10] was inactive. Further, the inhibition at 200 µM in the series on Escherichia coli [1] amounted to 96%; in the series with Escherichia coli [2], 100%. The outcome in the series with Escherichia coli [8] and with Escherichia coli [9] was Active. Also, the inhibition in the series on Escherichia coli BL21 (concentration not given here) amounted to 99%. The inhibition result in series [3] was “inactive”.
In series [4], `C=C(C(=O)OC)C(O)C(O)CO` (centres undefined) showed a pIC50 of 5.20. For the same molecule, the inhibition at 200 µM with Escherichia coli [2] came out at 17%. For the same molecule, the inhibition in the series with Escherichia coli BL21 (concentration not given here) is 77%; in [3], 10%.
As to `C=C(CCO)C(=O)O[C@@H]1O[C@H](CO)[C@@H](O)[C@H](O)[C@H]1O`, the inhibition entry (in the series on Escherichia coli [1]; in the series with Escherichia coli [2]; in series [3]) was “inactive” throughout. Further, in the series on Escherichia coli BL21 (concentration not given here), the inhibition was determined as 11%.
`C=C1CCOC1=O` [TULIPALINE A]: the inhibition result (in the series on Escherichia coli [1]; in the series with Escherichia coli BL21; in [3]) was “inactive” each time. In addition, the inhibition at 200 µM in the series on Escherichia coli [2] stood at 5%.
The molecule `C=C(C(=O)O)C(O)CO` (centres undefined) registered an MBC with Escherichia coli [6] of 25 µM (≈ 3.3 µg/mL). 1.56 µM (≈ 0.206 µg/mL) was the least that counted as inhibitory in the series with Escherichia coli [6] (MIC). Moreover, the half-life in series [5] is below 7 h. For the same molecule, the pIC50 in series [4] was 5.07. Besides, the outcome with Escherichia coli [7], in the series with Escherichia coli [8], in the series on Escherichia coli [9] and in the series with Escherichia coli [10] was inactive. Further, the inhibition at 200 µM was determined as 100% with Escherichia coli [1] and 18% in the series on Escherichia coli [2]. Besides, the inhibition with Escherichia coli BL21 (concentration not given here) was determined as 87%. Moreover, in [3], the inhibition entry is “inactive”.
As to `C=C(CP(=O)(O)O)C(=O)OC`, the inhibition entry (in the series on Escherichia coli [1]; in the series with Escherichia coli [2]; in the series on Escherichia coli BL21; in series [3]) was “inactive” in each case.
Consider `C=C1C(=O)O[C@@H]2/C=C(\CO)CC/C=C(\C)C[C@H](OC(=O)C(=C)[C@H](O)CO)[C@@H]12` [CNICIN], for which the minimum bactericidal concentration (MBC) in the series with Escherichia coli [6] is 200 µM (≈ 75.7 µg/mL). The same molecule had an MIC in the series on Escherichia coli [6] of 25 µM (≈ 9.46 µg/mL). In series [4], this molecule gave a negative-log IC50 (pIC50) of 4.78. The outcome with Escherichia coli [7], with Escherichia coli [8], in the series with Escherichia coli [9] and with Escherichia coli [10] was inactive. Moreover, the inhibition at 200 µM with Escherichia coli [1] was 92%; in the series on Escherichia coli [2], 19%. Also, the inhibition with Escherichia coli BL21 (concentration not given here) is 97%. Also, the inhibition entry in series [3] is “inactive”.
With `C=C(C(=O)O[C@@H]1O[C@H](CO)[C@@H](O)[C@H](O)[C@H]1O)[C@@H](O)CO` [1-TULIPOSIDE B], in the series with Escherichia coli [6], the MBC was 50 µM (≈ 14.7 µg/mL) and the minimum inhibitory concentration (MIC) is 6.25 µM (≈ 1.84 µg/mL). This molecule showed a negative-log IC50 (pIC50) in series [4] of 5.30. Besides, in the series on Escherichia coli [1], the inhibition at 200 µM amounted to 97%. Besides, the inhibition at 200 µM with Escherichia coli [2] amounted to 64%. In the series with Escherichia coli BL21 (concentration not given here), the inhibition came out at 84%. Also, the inhibition result in [3] is “inactive”.
Turning to `C=C1C(=O)OCC1O` (racemic) [(+/-)-TULIPALINE B], the MBC with Escherichia coli [6] is 200 µM (≈ 22.8 µg/mL). Moreover, the MIC with Escherichia coli [6] was determined as 12.5 µM (≈ 1.43 µg/mL). The pIC50 in series [4] was 5.70. In addition, the outcome in the series on Escherichia coli [7], with Escherichia coli [8], in the series on Escherichia coli [9] and in the series with Escherichia coli [10] was inactive. Also, the inhibition at 200 µM came out at 93% in the series with Escherichia coli [1] and 62% with Escherichia coli [2]. The inhibition with Escherichia coli BL21 (concentration not given here) turned out to be 97%. Also, in series [3], the inhibition entry was “inactive”.
Consider `C=C(C(=O)OC)C(OC(C)=O)C(O)CO` (centres undefined), for which the negative logarithm of the IC50 (pIC50) in series [4] is 5.35. Besides, the inhibition at 200 µM in the series on Escherichia coli [1] was determined as 98%; in the series with Escherichia coli [2], 30%. The inhibition in the series on Escherichia coli BL21 (concentration not given here) amounted to 79%; in [3] it was 10%.

(Values after ChEMBL document CHEMBL1255527, “Structure-activity relationships of tulipalines, tuliposides, and related compounds as inhibitors of MurA” (Bioorg Med Chem Lett, 2010).)
